Our source for the melting point values is US7235551B2, “1,5-disubstituted-3,4-dihydro-1h-pyrimido[4,5-d]pyrimidin-2-one compounds and their use in treating csbp/p38 kinase mediated diseases” (SmithKline Beecham Corporation, priority 2000, dated 2007).

Broadly, the melting point is the temperature, or range, at which the solid turns liquid.

With `COc1nc(-c2ccccc2)c2c(n1)N(c1ccccc1)C(=O)NC2` [Example 167, 1,5-diphenyl-7-methoxy-3,4-dihydro-1H-pyrimido[4,5-d]pyrimidin-2-one], the melting point lay within 220 to 222 °C.

`Cc1cc(F)ccc1-c1nc(OCCO)nc2c1CNC(=O)N2c1c(F)cccc1F` [Example 163, 1-(2,6-Difluorophenyl)-5-(4-fluoro-2-methylphenyl)-7-(2-hydroxyethoxy)-3,4-dihydro-1H-pyrimido[4,5-d]pyrimidin-2-one] came in with a melting point of 172 to 175 °C.

Turning to `COc1nc(-c2ccccc2)c2c(n1)N(c1c(F)cccc1F)C(=O)NC2` [Example 166, 1-(2,6-Difluorophenyl)-5-phenyl-7-methoxy-3,4-dihydro-1H-pyrimido[4,5-d]pyrimidin-2-one], the melting point lay within 221 to 224 °C.

With `COc1nc(-c2ccc(F)cc2C)c2c(n1)N(c1c(F)cccc1F)C(=O)NC2` [Example 161, 1-(2,6-Difluorophenyl)-5-(4-fluoro-2-methylphenyl)-7-methoxy-3,4-dihydro-1H-pyrimido[4,5-d]pyrimidin-2-one], the melting point lay in the range of 210 to 211 °C.
